Target: T1, 11β-hydroxysteroid dehydrogenase type 1 (11β-HSD1) (Mus musculus, UniProt P50172)
T1 construct: gene Hsd11b1; recombinant 11β-HSD1
Assay: HTRF cortisol competitive assay with recombinant […]β-HSD1; also […] ex vivo inhibition in mouse liver
Type: biochemical

T1 sequence (P50172 whole entry): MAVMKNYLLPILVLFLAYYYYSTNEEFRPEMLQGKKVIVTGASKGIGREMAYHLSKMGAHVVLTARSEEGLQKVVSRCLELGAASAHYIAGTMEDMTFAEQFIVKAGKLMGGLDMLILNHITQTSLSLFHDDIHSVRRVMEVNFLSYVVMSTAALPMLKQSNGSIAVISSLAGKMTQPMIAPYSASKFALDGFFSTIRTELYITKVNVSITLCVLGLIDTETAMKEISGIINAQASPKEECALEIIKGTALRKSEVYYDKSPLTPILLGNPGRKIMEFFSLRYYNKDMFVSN

IC50: 30 nM
Structure (SMILES): F[C@H]1C[C@](c2ccc(Cl)cc2)(c2nnc(C3CC3)n2C2CC2)C1 [MK-0916, 3-[1-(4-chlorophenyl)-3-fluorocyclobutyl]-4,5-dicyclopropyl-1,2,4-triazole]
